# US20230322805A1, “NOVEL PYRIMIDODIAZEPINE DERIVATIVES OR USES THEREOF” (SPARK BIOPHARMA, INC., priority 2020, published 2023)
# Experiments:
# [1] = test system: BiFC-tau Venus HEK293 cells (tau aggregation, hTau441); assay: BiFC-tau Venus HEK293 cell assay monitoring tau aggregation under thapsigargin; format: cell-based, human; conditions: for activity at 10 µM / IC50: Homo sapiens; for activity at 10 µM: HEK293-BiFC-tau-Venus cells co-treated with 10 μM compound and 80 nM thapsigargin for 24 hours, read-out: BiFC-tau intensity (%); for IC50: HEK293, inhibition of BiFC-tau Venus fluorescence, 80 nM thapsigargin, table head prints no unit, μM, read-out: BiFC-tau intensity (IC50)
# Description: Phenotype-based screening to monitor tau assembly was performed using BiFC-tau Venus HEK293 cells in a high-throughput manner. Cells were seeded in 384-well plates at a density of 2.8×10^3 cells/well in 40 μL medium for 24 hours. Cells were treated with 80 nM thapsigargin (Sigma-Aldrich) in 10 μL medium and then ˜ 3,000 pDOS library compounds (10 μM), including compounds according to the present invention, using a 0.1 μL pinning tool. For knockdown experiments, cells were transfected with 5 or 10 nM siRNA using Lipofectamine RNAiMAX and incubated for 48 hours before thapsigargin treatment. […] Plates were scanned on an INCell Analyzer 2000 (GE Healthcare) at λex/λem=490/525 nm for Venus fluorescence (for the FITC channel) and λex/λem=350/455 nm for nuclei (for the DAPI channel). Bright-field images were taken to confirm cell morphology, and images were analyzed to quantify Venus intensity per cell using developer software (GE Healthcare).
# 1-1. According to the method described in Examples 1-15 above, the expression of Venus-based bimolecular fluorescence complemented-tau (BiFC-tau) was confirmed using HEK293 human embryonic kidney cells, thereby phenotyping the phenotype-based screening was performed.
# The N-terminal Venus (VN173) and C-terminal Venus (VC155) fragment sequences are fused with the full-length human tau (hTau441) sequence to form the BiFC-tau Venus HEK293 cell system. Soluble tau dimers can be measured by monitoring the turn-on/off signal of Venus fluorescence through co-expression of the two fused vectors, hTau441-VN173 and hTau441-VC1 55.
# As a stimulator of tau aggregation, thapsigargin (TG; an ER stress inducer), a direct inhibitor of sarco/endoplasmic reticulum Ca2^+-ATPase, was used. This disrupts calcium homeostasis. Thapsigargin treatment induces tau dimerization (tau aggregation), which can be confirmed by BiFC-tau Venus fluorescence turn-on.
# [2] = test system: acute Alzheimer's mouse model; assay: Acute Alzheimer's mouse model (acquisition and probe test); format: in vivo; conditions: acute Alzheimer's mouse model
# Description: 7-1. Potential therapeutic effect of SB1617 in an acute Alzheimer's mouse model was identified, and the design for the experiment is schematically shown in FIG. 40
# 7-3. As a result of confirming the treatment efficacy through a probe test, after removing the platform, it was performed by recording how many times the mouse passed the position where the platform was […]
Compound,activity at 10 µM [1] [%],melting point [°C],change in Venus fluorescence intensity ([1]; various concentrations with 80 nM TG for 20 hours),"learning ability (Acquisition test), rank order [2]",IC50 [1] [µM]
CN(Cc1ccccc1)c1ncnc2c1[C@@H]1OC[C@H](CN2)N1S(=O)(=O)c1cccnc1 [Compound 110],130,185 to 187,–,–,–
CN(Cc1ccccc1)c1ncnc2c1[C@@H]1OC[C@H](CN2)N1S(=O)(=O)c1cccs1 [Compound 111],110,112 to 114,–,–,–
CCN1C[C@H]2CO[C@@H](c3c(N(C)Cc4ccc(Cl)cc4)ncnc31)N2S(=O)(=O)c1ccc([N+](=O)[O-])cc1 [Compound 130],70,–,–,–,–
CN(C)c1ncnc2c1[C@@H]1OC[C@H](CN2)N1S(=O)(=O)c1ccc([N+](=O)[O-])cc1 [Compound 112],90,118 to 120,–,–,–
CN(Cc1ccccc1)c1ncnc2c1[C@@H]1OC[C@H](CN2)N1S(C)(=O)=O [Compound 107],94,136 to 138,the activity was lost,–,–
COc1ccc(CN(C)c2ncnc3c2[C@@H]2SC[C@H](CN3)N2S(=O)(=O)c2ccc([N+](=O)[O-])cc2)cc1 [Compound 135],57,–,–,–,–
CN(Cc1ccccc1)c1ncnc2c1[C@@H]1OC[C@H](CN2)N1S(=O)(=O)c1cccc([N+](=O)[O-])c1 [Compound 104],115,–,–,–,–
"COc1cc2c(cc1OC)C(=O)C(CC1CCN(Cc3ccccc3)CC1)C2 (centres unmarked) [Donepezil, reference compound]",–,–,–,WT >Donepezil >SB-1617>Vehicle,–
CN(Cc1ccccc1)c1ncnc2c1[C@@H]1OC[C@H](CN2)N1S(=O)(=O)c1ccccc1[N+](=O)[O-] [Compound 103],102,–,–,–,–
CN(Cc1ccc(Cl)cc1)c1ncnc2c1[C@@H]1OC[C@H](CN2C(=O)c2ccc(F)cc2)N1S(=O)(=O)c1ccc([N+](=O)[O-])cc1 [Compound 129],70,–,–,–,–
C=C(C)c1ncnc2c1[C@@H]1OC[C@H](CN2)N1S(=O)(=O)c1ccc([N+](=O)[O-])cc1 [Compound 115],99,200 to 202,–,–,–
CN(Cc1ccc(F)cc1)c1ncnc2c1[C@@H]1OC[C@H](CN2)N1S(=O)(=O)c1ccc([N+](=O)[O-])cc1 [Compound 118],55,102 to 104,–,–,7.6
CN(Cc1ccccc1)c1ncnc2c1[C@@H]1OC[C@H](CN2)N1S(=O)(=O)c1ccccc1 [Compound 108],105,120 to 122,–,–,–
CN(Cc1ccccc1)c1ncnc2c1[C@@H]1OC[C@H](CN2)N1S(=O)(=O)c1ccc([N+](=O)[O-])cc1 [Compound 105],46,97 to 99,–,–,5.2
CN(Cc1ccccc1)c1ncnc2c1[C@@H]1OC[C@H](CN2)N1S(=O)(=O)c1ccc(F)cc1 [Compound 106],81,105 to 107,–,–,–
CN(Cc1ccc(Cl)cc1)c1ncnc2c1[C@@H]1SC[C@H](CN2)N1C(=O)Nc1ccc([N+](=O)[O-])cc1 [Compound 133],94,–,–,–,–
C=CCOC(=O)N1[C@H]2CNc3ncnc(N(C)Cc4ccc(Cl)cc4)c3[C@@H]1OC2 [Compound 126],100,–,–,–,–
CN(CCc1ccccc1)c1ncnc2c1[C@@H]1OC[C@H](CN2)N1S(=O)(=O)c1ccc([N+](=O)[O-])cc1 [Compound 113],71,108 to 110,–,–,–

Compound,activity at 10 µM [1] [%],melting point [°C],change in Venus fluorescence intensity ([1]; various concentrations with 80 nM TG for 20 hours),"learning ability (Acquisition test), rank order [2]",IC50 [1] [µM]
C#Cc1ccc(S(=O)(=O)N2[C@H]3CNc4ncnc(N(C)Cc5ccc(N=[N+]=[N-])cc5)c4[C@@H]2OC3)cc1 [Compound 124],50,139 to 141,–,–,8.1
COc1ccc(S(=O)(=O)N2[C@H]3CNc4ncnc(N(C)Cc5ccc(Cl)cc5)c4[C@@H]2OC3)cc1 [Compound 121],51,156 to 158,–,–,6.6
COc1ccc(-c2ncnc3c2[C@@H]2OC[C@H](CN3)N2S(=O)(=O)c2ccc([N+](=O)[O-])cc2)cc1 [Compound 116],135,250 to 252,–,–,–
Cc1ccc(S(=O)(=O)N2[C@H]3CNc4ncnc(N(C)Cc5ccccc5)c4[C@@H]2OC3)cc1 [Compound 101],65,150 to 152,–,–,9.1
CC(=O)N1C[C@H]2CO[C@@H](c3c(N(C)Cc4ccc(Cl)cc4)ncnc31)N2S(=O)(=O)c1ccc([N+](=O)[O-])cc1 [Compound 122],81,105 to 107,–,–,–
COc1ccc(S(=O)(=O)N2[C@H]3CNc4ncnc(N(C)Cc5ccccc5)c4[C@@H]2OC3)cc1 [Compound 102],79,121 to 123,–,–,–
CN(Cc1ccc(Cl)cc1)c1ncnc2c1[C@H]1OCC[C@@H](CN2)N1S(=O)(=O)c1ccc([N+](=O)[O-])cc1 [Compound 128],95,–,–,–,–
CN(Cc1ccccc1)c1ncnc2c1[C@@H]1OC[C@H](CN2)N1S(=O)(=O)Cc1ccccc1 [Compound 109],84,78 to 80,–,–,–
CN(Cc1ccc(Cl)cc1)c1ncnc2c1[C@@H]1OC[C@H](CN2C(=O)C2CC2)N1S(=O)(=O)c1ccc([N+](=O)[O-])cc1 [Compound 123],78,124 to 126,–,–,–
CN(Cc1ccc(Cl)cc1)c1ncnc2c1[C@@H]1SC[C@@H](CN2)N1C(=O)OC(C)(C)C [Compound 132],80,–,–,–,–
CN(Cc1ccc(Cl)cc1)c1ncnc2c1[C@@H]1SC[C@H](CN2)N1S(=O)(=O)c1ccc([N+](=O)[O-])cc1 [Compound 131],98,–,–,–,–
CC(C)N(Cc1ccccc1)c1ncnc2c1[C@@H]1OC[C@H](CN2)N1S(=O)(=O)c1ccc([N+](=O)[O-])cc1 [Compound 114],47,85 to 87,–,–,6.9
CN(Cc1ccc(Cl)cc1)c1ncnc2c1[C@@H]1OC[C@H](CN2)N1S(=O)(=O)c1ccc(F)cc1 [Compound 120],81,150 to 152,–,–,–
CN(Cc1ccc(Cl)cc1)c1ncnc2c1CN(S(=O)(=O)c1ccc([N+](=O)[O-])cc1)[C@H](CO)CN2 [Compound 127],100,–,–,–,–
CN(Cc1ccc(Cl)cc1)c1ncnc2c1[C@H]1OC[C@@H](CN2)N1S(=O)(=O)c1ccc([N+](=O)[O-])cc1 [Compound 125],98,–,–,–,–
CN(Cc1ccc(N=[N+]=[N-])cc1)c1ncnc2c1[C@@H]1OC[C@H](CN2)N1S(=O)(=O)c1ccc([N+](=O)[O-])cc1 [Compound 119],56,88 to 90,–,–,4.6
CNc1ncnc2c1[C@@H]1OC[C@H](CN2)N1S(=O)(=O)c1ccc([N+](=O)[O-])cc1 [Compound 136],10,–,–,–,–
CN(Cc1ccc(Cl)cc1)c1ncnc2c1[C@H]1N(S(=O)(=O)c3ccc([N+](=O)[O-])cc3)[C@@H](CN2)CS1(=O)=O [Compound 134],100,–,–,–,–
